Source: ChEMBL document CHEMBL1149481, “Inhibitors of epidermal growth factor receptor tyrosine kinase: optimisation of potency and in vivo pharmacokinetics” (Bioorg Med Chem Lett, 2006)
Values belong to the compound of their own block, whether it stands above or below them.

How the values were obtained:
[1] = Bioavailability in Wistar rat at 2 mg/kg, iv and 5 mg/kg, po; format: ADME, organism-based; conditions: in vivo
[2] = Volume of distribution in Wistar rat at 2 mg/kg, iv and 5 mg/kg, po; format: ADME, organism-based; conditions: in vivo, read-out: Vdss
[3] = Clearance in Wistar rat at 2 mg/kg, iv and 5 mg/kg, po; format: ADME, organism-based; conditions: in vivo
Rattus norvegicus [4] = experiment: AUC in Wistar rat at 5 mg/kg, po normalized to 1 mg/kg; format: ADME, organism-based, Plasma; conditions: in vivo
[5] = Volume of distribution in Wistar rat at 2 mg/kg, iv and 10 mg/kg, po; format: ADME, organism-based; conditions: in vivo, read-out: Vdss
in vivo = conditions: Wistar, rat, iv, 2 mg/kg
[6] = Bioavailability in Wistar rat at 2 mg/kg, iv and 10 mg/kg, po; format: ADME, organism-based; conditions: in vivo
Rattus norvegicus [7] = experiment: AUC in Wistar rat at 10 mg/kg, po normalized to 1 mg/kg; format: ADME, organism-based, Plasma; conditions: in vivo
Mus musculus [8] = experiment: Free drug level in mouse plasma at 50 mg/kg, po at 2 hrs; format: ADME, organism-based; design: dose 50 mg/kg, route oral; conditions: in vivo
Mus musculus [9] = experiment: Free drug level in mouse plasma at 50 mg/kg, po at 24 hrs; format: ADME, organism-based; design: dose 50 mg/kg, route oral; conditions: in vivo
Mus musculus [10] = experiment: Free drug level in mouse plasma at 50 mg/kg, po at 4 hrs; format: ADME, organism-based; design: dose 50 mg/kg, route oral; conditions: in vivo
Mus musculus [11] = experiment: Free drug level in mouse plasma at 50 mg/kg, po at 6 hrs; format: ADME, organism-based; design: dose 50 mg/kg, route oral; conditions: in vivo
[12] = AUC in nude mouse xenografted with human LoVo cell at 50 mg/kg, po, twice daily; format: ADME, organism-based; design: dose 50 mg/kg; conditions: in vivo
[13] = Cmax in nude mouse xenografted with human LoVo cell at 50 mg/kg, po, twice daily; format: ADME, organism-based; design: route oral, dose 50 mg/kg; conditions: in vivo
[14] = Cmax in nude mouse xenografted with human LoVo cell at 100 mg/kg, po; format: ADME, organism-based; design: dose 100 mg/kg, route oral; conditions: in vivo
[15] = AUC in nude mouse xenografted with human LoVo cell at 100 mg/kg, po; format: ADME, organism-based; design: dose 100 mg/kg, route oral; conditions: in vivo
[16] = Half life in rat; format: ADME, organism-based; conditions: in vivo
[17] = Cmax in nude mouse xenografted with human LoVo cell at 50 mg/kg, po; format: ADME, organism-based; design: dose 50 mg/kg, route oral; conditions: in vivo
[18] = AUC in nude mouse xenografted with human LoVo cell at 50 mg/kg, po; format: ADME, organism-based; design: dose 50 mg/kg, route oral; conditions: in vivo
[19] = Terminal half life in human; format: ADME, organism-based; conditions: in vivo, read-out: beta t1/2 (converted)
[20] = Terminal half life in cancer affected human; format: ADME, organism-based; conditions: in vivo, read-out: beta t1/2 (converted)
[21] = Volume of distribution in rat; format: ADME, organism-based; conditions: in vivo

SMILES: COc1cc2ncnc(Nc3cccc(Cl)c3F)c2cc1OCC1CCN(C)CC1
pKa (physchem): 9.3

SMILES: COc1cc2ncnc(Nc3ccc(F)c(Cl)c3)c2cc1OCC1CCN(C)CC1
pKa (physchem): 9.3

SMILES: COc1cc2ncnc(Nc3cccc(Cl)c3F)c2cc1OC1CCN(CC(N)=O)CC1
bioavailability [1]: 27%
pKa (physchem): 6.7
Vd [2]: 2.7 L/kg
clearance [3]: 16 mL/min/kg
AUC (Rattus norvegicus [4]): 0.59 µM·h

SMILES: COc1cc2ncnc(Nc3cccc(Cl)c3F)c2cc1OCCCN1CCOCC1
Vd [5]: 4.3 L/kg
clearance (in vivo): 29 mL/min/kg
bioavailability [6]: 73%
AUC (Rattus norvegicus [7]): 0.94 µM·h
Cp (Mus musculus [8]): 430 nM
Cp (Mus musculus [9]): 10 nM
Cp (Mus musculus [10]): 680 nM
Cp (Mus musculus [11]): 410 nM

SMILES: COc1cc2ncnc(Nc3cccc(Cl)c3F)c2cc1OC1CCN(S(C)(=O)=O)CC1
bioavailability [1]: 45%
AUC [12]: 286 µM·h
Cmax [13]: 23900 nM
Cmax [14]: 36800 nM
AUC [15]: 450 µM·h
Vd [2]: 1.5 L/kg
half-life [16]: 1.6 h
clearance [3]: 13 mL/min/kg
Cmax [17]: 30600 nM
AUC (Rattus norvegicus [4]): 1.18 µM·h
AUC [18]: 225 µM·h

SMILES: COc1cc2ncnc(Nc3ccc(F)c(Cl)c3)c2cc1OCCCN1CCOCC1 [GEFITINIB]
half-life [19]: 28 h
Cmax [14]: 6700 nM
half-life [20]: 37 h
Vd [5]: 5.8 L/kg
AUC [15]: 85.9 µM·h
bioavailability [6]: 56%
Vd [21]: 5.8 L/kg
half-life [16]: 7 h
AUC (Rattus norvegicus [7]): 0.32 µM·h
Cmax [17]: 8100 nM
Cp (Mus musculus [8]): 260 nM
Cp (Mus musculus [9]): 10 nM
Cp (Mus musculus [10]): 130 nM
Cp (Mus musculus [11]): 150 nM
AUC [18]: 78.7 µM·h

SMILES: COc1cc2c(Nc3ccc(Br)cc3F)ncnc2cc1OCC1CCN(C)CC1 [VANDETANIB]
pKa (physchem): 9.3

Continued, values first:

pKa (physchem): 6.7
SMILES: COc1cc2ncnc(Nc3cc(Cl)ccc3F)c2cc1OC1CCN(CC(N)=O)CC1

pKa (physchem): 8.8
SMILES: COc1cc2ncnc(Nc3cc(Cl)ccc3F)c2cc1OC1CCN(C)CC1

bioavailability [1]: 74%
pKa (physchem): 8.8
Vd [2]: 20.8 L/kg
clearance [3]: 129 mL/min/kg
AUC (Rattus norvegicus [4]): 0.08 µM·h
SMILES: COc1cc2ncnc(Nc3cccc(Cl)c3F)c2cc1OC1CCN(C)CC1

bioavailability [1]: 30%
pKa (physchem): 8.1
Vd [2]: 1.3 L/kg
clearance [3]: 11 mL/min/kg
AUC (Rattus norvegicus [4]): 0.95 µM·h
SMILES: COCCN1CCC(Oc2cc3c(Nc4cccc(Cl)c4F)ncnc3cc2OC)CC1

pKa (physchem): 8.1
SMILES: COCCN1CCC(Oc2cc3c(Nc4cc(Cl)ccc4F)ncnc3cc2OC)CC1

pKa (physchem): 8.8
SMILES: COc1cc2ncnc(Nc3ccc(F)c(Cl)c3)c2cc1OC1CCN(C)CC1

Vd [5]: 3.5 L/kg
clearance (in vivo): 16 mL/min/kg
bioavailability [6]: 71%
AUC (Rattus norvegicus [7]): 1.64 µM·h
Cp (Mus musculus [8]): 300 nM
Cp (Mus musculus [9]): 0 nM
Cp (Mus musculus [10]): 360 nM
Cp (Mus musculus [11]): 170 nM
SMILES: COc1cc2ncnc(Nc3cc(Cl)ccc3F)c2cc1OCCCN1CCOCC1

pKa (physchem): 9.3
SMILES: COc1cc2ncnc(Nc3cc(Cl)ccc3F)c2cc1OCC1CCN(C)CC1
